# Measurements taken from US20220193209A1, “COMPOSITIONS AND METHODS FOR REACTIVATING LATENT IMMUNODEFICIENCY VIRUS AND/OR TREATING IMMUNODEFICIENCY VIRUS INFECTION” (The J. David Gladstone institutes, a testamentary trust …, priority 2019, published 2022).
# What was measured:
# J-Lat cells = experiment: Cell viability of J-Lat cells by flow cytometry; type: cell-based
# Procedure: FIG. 3, Panel A, depicts results of treatment of a J-Lat cell line 5A8 with increasing concentrations (1-10000 nM) of AS1842856 for 24, 48 and 72 h. HIV-GFP mRNA reactivation was assessed by RT-qPCR and normalized to RPL13A mRNA. Data represent average SD of three independent experiments. p-value relative to the control at each time point. FIG. 3, Panel B, depicts cell viability assessed by flow cytometry at 72 h of the same experiment as in A. Cell viability was measured by gating on both the live population at the forward scatter (FSC) and side scatter (SSC) plot and then the viable cells after staining with the viability dye. FIG. 3, Panel C, depicts results of treatment of J-Lat cell lines A2 and A72 with increasing concentrations of AS1842856 for 24, 48 and 72 h. HIV-GFP reactivation (bars) and cell viability (dots) were analyzed by FACS. HIV-GFP reactivation is reported as a percentage of GFP-expressing cells (% GFP+ cells). Data represent average f SD of at least three independent experiments. FIG. 3, Panel D, depicts the same experiments as in FIG. 3, Panel C, but performed in different J-Lat cell lines 5A8, 6.3, 11.1 and 15.4. Data represent average f SD of at least three independent experiments. 10 ng/mL TNFα was used as control. FIG. 3 Panel E depicts results of treatment of J-Lat cell lines 5A8, 6.3, 11.1 and 15.4 for 72 h with increasing concentrations of both AS1842856 (Y-axis) and TNFα (X-axis) alone or in combination and analyzed by FACS. Calculation of synergy for drug combinations using the Bliss independence model applied to the HIV-GFP reactivation measured as a percentage of GFP-expressing cells (% GFP+ cells).
# FIG. 10, Panels A-F depict results of a J-Lat cell line 5A8 treated with different concentrations of inhibitors. FIG. 10, Panel A, depicts results for a J-Lat cell line A58 that was treated with increasing concentrations of A-92 (GCN2 inhibitor) in combination with 1000 nM AS1842856 (72 h) or 10 ng/mL TNFα (24 h). HIV-GFP reactivation was analyzed by FACS and relativized to the control condition. Histogram plots of percent live cells for each drug treatment are shown. FIG. 10, Panel B, depicts the same experiment as in FIG. 10, Panel A, but cells were treated with increasing concentrations of PKR inhibitor (PKRi). Histogram plots representing viability are also shown. Data are represented by mean±SD of three different […]. […] FIG. 10, Panel D, depicts a J-Lat cell line A58 that was treated with increasing concentrations of Ionomycin (0.01, 0.1, 0.5, 1 μM) for 24, 48 and 72 hr. HIV-GFP reactivation and cell viability were analyzed by FACS. FIG. 10, Panel E, depicts a J-Lat cell line 5A8 that was treated for 72 h with increasing concentrations of both Fenretinide (Y-axis) and Ionomycin (X-axis) alone or in combination and analyzed by FACS. HIV-GFP reactivation is reported as a percentage of GFP-expressing cells (% GFP+ cells). FIG. 10, Panel F, depicts a J-Lat cell line 5A8 that was also treated for 72 h with increasing concentrations of both Thapsigargin (Y-axis) and Cyclosporin A (X-axis) alone or in combination and analyzed by FACS. HIV-GFP reactivation is again reported as a percentage of GFP-expressing cells (% GFP+ cells).
# CD4+ T cells = type: cell-based, human
# Procedure: CD69 and CD25 expression was measured by flow cytometry gating on CD3^+CD4^+ T cells using FITC-labeled antibodies for CD3 (11-0048-42, eBioscience), APC-conjugated CD25 antibodies (17-0259-42, eBioscience), PerCP-labeled antibodies for CD4 (300528, Biolegend), and CD69-V450 (560740, BD Horizon). Staining was performed for 30 min on ice in FACS buffer (PBS, 2% FBS), and samples were analyzed on a BD Biosciences LSRII flow cytometer. Shown are the percentages of positive cells relative to total CD3^+ CD4^+ T cells or median fluorescence intensity (MFI).
# FIG. 6, Panel A, the cell surface CD69 and CD25 T cell activation markers were measured by FACS in CD4^+ T cells upon AS1842856 treatment for 24, 48 and 72 h. 10 μg/mLαCD3 and 1 μg/mL αCD28 was used as control. Data is shown as percentage of positive cells and as mean±SD of two biological replicates. FIG. 6, Panel B, depicts the same as in FIG. 6, Panel A, but measuring FOXO1 target genes (IL7R, KLRG1, CD62L) after 48 h of AS1842856 treatment (n=3). […]. Cells were allowed to rest for 6 days before 72 h reactivation was induced with PHA/IL-2 and 10 μg/mL αCD3 and 1 μg/mLαCD28. Data are mean±SEM of at least 3 individual donors. Data represent average SD of 9-13 independent experiments. […] Cell viability was assessed by Trypan Blue exclusion.
# [1] = test system: latent HIV in CD4+ T cells from HIV-infected patients; experiment: Cell-associated HIV RNA by ddPCR in CD4+ T cells of HIV-infected patients on antiretroviral therapy, ex vivo; type: cell-based; conditions: 100 and 1000 nM, 3 days, five patients
# Procedure: Cells were treated ex vivo with two concentrations of AS1842856 (100 and 1000 nM), prostratin (250 nM) or combinations thereof for 3 days, and HIV RNA induction was measured by digital droplet PCR (ddPCR).
# [2] = test system: HIV latency establishment (HIVGKO) in primary CD4+ T cells; experiment: HIVGKO latency establishment in primary resting CD4+ T cells; type: cell-based, HIV-1; conditions: increasing doses, 72 hours
structure (smiles),measurement,setting,value
"CCn1cc(C(=O)O)c(=O)c2c(N)c(F)c(NC3CCCCC3)cc21 [AS1842856, 5-amino-7-(cyclohexylamino)-1-ethyl-6-fluoro-4-oxo-1,4-dihydro-quinoline-3-carboxylic acid]",cell viability,"J-Lat cells; J-Lat 5A8, 72 h",No major effects
same,cell viability,J-Lat cells; J-Lat A2 and A72,no effect
same,viability,J-Lat cells; four J-Lat clonal cell lines,unaffected
same,generalized T cell activation (CD69 and CD25 expression),CD4+ T cells,not observed
same,HIV RNA induction,[1],two-fold
same,productive infection and establishment of latency,[2],promoted productive infection and decreased the establishment of latency
